The values that follow come from patent US6911474B2, “Methods, compounds, and compositions for reducing body fat and modulating fatty acid metabolism” (The Regents of the University of California, priority 2001, dated 2005).

Data set [1] is described as follows: Elevated plus maze anxiety test. The class given is in vivo, rat. The conditions noted are these: FIG. 4g. On the procedure:
(§1) Other behavioral assays. The elevated plus maze test was conducted as described (Navarro et al., Neuroreport, 8:491-496 (1997)) after the administration of vehicle or OEA (20 mg per kg, i.p.). Horizontal activity in an open field (Beltramo et al., J. Neurosci., 20:3401-3407 (2000)) and pain threshold in the hot plate test (55° C.) (Beltramo et al., Science, 277:1094-1097 (1997)) were measured 15 min after injection of vehicle or OEA (20 mg per kg). Rectal temperature was measured using a digital thermometer (Martin-Calderón et al., Eur. J. Pharmacol., 344:77-86. (1998)).

A short description of data set [2]: Food intake after intracerebroventricular administration to 24 h food-deprived rats. It is filed as in vivo, rat. On the procedure:
Feeding experiments. Acute experiments. Food intake was measured in 24-h food-deprived rats (Navarro et al., J. Neurochem., 67:1982-1991 (1996)), administering drugs 15 min before food presentation. Subchronic experiments. Ad libitum fed rats received vehicle injections for three days. On day four, the animals were divided in two equal groups and gave them daily injections of vehicle or OEA (5 mg per kg at 1900 h) for 7 consecutive days, while measuring body weight, food intake and water intake.

The nature of data set [3]: Food intake in capsaicin-treated rats (sensory fibers destroyed). It is filed as in vivo, rat. The conditions noted are these: OEA 10 mg per kg, i.p., FIG. 6a,c. The text has this:
Chemicals. FAEs and [^2H4] FAEs were synthesized in the laboratory (Giuffrida et al., “Lipid Second Messengers” (ed. Laychock, S. G. & Rubin, R. P.) 113-133 (CRC Press LLC, Boca Raton, Fla., 1998)); 1,2-dioleyl-sn-glycero-phosphoethanolamine-N-oleyl was purchased from Avanti Polar Lipids (Alabaster, Ala.); SR141716A was provided by RBI (Natick, Mass.) as part of the Chemical Synthesis Program of the NIMH (N01MH30003); SR144528 was a generous gift of Sanofi Recherche; all other drugs were from Tocris (Ballwin, Mo.) or Sigma (Saint Louis, Mo.). FAE were dissolved in dimethylsulphoxide (DMSO) and administered in 70% DMSO in sterile saline (acute treatments) or 5% Tween 80/5% propylenglycol in sterile saline (subchronic treatments) (1 ml per kg, i.p.). Capsaicin was administered in 10% Tween 80/10% ethanol/80% saline; SR141716A, SR144528, CCK-8 and CP-93129 in 5% Tween 80/5% propylenglycol/90% saline (1 ml per kg, i.p.).
These findings support the hypothesis that OEA causes hypophagia by acting at a peripheral site, and that sensory fibers are required for this effect.

Data set [4] in a line: Acute water intake. It is filed as in vivo, rat. The conditions noted are these: 5 or 20 mg per kg; FIG. 4d. On the procedure: FIG. 4. Oleoylethanolamide/[…] selectively suppresses food intake: […] Vehicle alone (70% DMSO in saline, 1 ml per kg, i.p.) had no significant effect on acute food intake; (b) time course of the hypophagic effects of oleoylethanolamide (20 mg per kg, i.p.) (squares) or vehicle (lozenges) on food intake. […] Empty bars, water intake; filled bars, saccharin intake. Effects of vehicle (V) or oleoylethanolamide (5 or 20 mg per kg) on: (d) water intake (expressed in ml per 4 h); (e) body temperature; (f) latency to jump in the hot plate analgesia test; (g) percent time spent in open arms in the elevated plus maze anxiety test; (h) number of crossings in the open field activity test; (i) number of operant responses for food. Asterisk, P<0.05, n=8-12 per group.

Data set [5] is described as follows: Operant responses for food. It is filed as in vivo, rat. The conditions noted are these: at a dose substantially higher than those required to produce hypophagia; FIG. 4i. The text has this:
Operant responses for food. Rats were trained to lever press for food on a fixed ratio 1 (FR1) schedule of reinforcement, while food-restricted at 20 g of chow per rat per day (Rodriguez de Fonseca et al., Acta Pharmacol. Sin., 20:1109-1114 (1999)). Once stable responding was achieved, the animals were trained to acquire an FR5, time out 2-min schedule of food reinforcement and kept in limited access to food. When a stable baseline was obtained, the animals were used to test the effects of vehicle or OEA (1, 5 or 20 mg per kg) administered 15 min before lever presentation. Test duration was 60 min.

Data set [6] addresses T1, cannabinoid receptors (rat brain membranes) (Rattus norvegicus, UniProt P20272).
T1 construct: from tissue; host or cells: rat brain membranes
The experiment in a line: Displacement of cannabinoid binding to rat brain membranes in vitro.

Data set [7] deals with Adipocyte. The experiment in a line: Lypolysis (glycerol release) in adipocytes. The class given is cell-based, rat.
Data set [8] has as its system Cardiomyocyte. Description: [14C]oleate oxidation to CO2 in cardiomyocytes. It is filed as cell-based, rat.
A short description of data set [9]: Open field activity test. It is filed as in vivo, rat. The conditions noted are these: at a dose substantially higher than those required to produce hypophagia; FIG. 4h. As to the method:
as §1

T1 sequence (P20272 whole entry): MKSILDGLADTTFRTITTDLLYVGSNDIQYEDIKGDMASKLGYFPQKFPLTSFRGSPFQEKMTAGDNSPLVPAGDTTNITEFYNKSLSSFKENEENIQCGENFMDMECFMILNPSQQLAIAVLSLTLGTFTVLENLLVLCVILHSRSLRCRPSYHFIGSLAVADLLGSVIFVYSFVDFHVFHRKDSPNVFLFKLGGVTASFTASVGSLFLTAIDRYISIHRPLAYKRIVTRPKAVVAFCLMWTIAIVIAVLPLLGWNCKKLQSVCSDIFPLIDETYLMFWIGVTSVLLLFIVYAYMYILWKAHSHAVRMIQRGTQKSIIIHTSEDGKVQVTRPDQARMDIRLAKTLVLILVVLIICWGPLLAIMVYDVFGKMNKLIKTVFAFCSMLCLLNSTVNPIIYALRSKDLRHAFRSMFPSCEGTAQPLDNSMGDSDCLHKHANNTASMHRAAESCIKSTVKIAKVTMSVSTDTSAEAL

With `CCCCCCCC/C=C\CCCCCCCC(=O)NCCO` [OEA, Oleoylethanolamide], the anxiety-like symptoms result in data set [1] is recorded as “did not produce anxiety-like symptoms”. Further, the “effect on food intake after direct injection into the brain ventricles” value in [2] was “ineffective”. Further, in data set [2] (0.4 μg per animal), the “food intake, 60 min” value amounted to 4.8 ± 0.4; the “food intake, 120 min” value is given as 6.6 ± 0.4; the “food intake, 240 min” value worked out at 8.4 ± 0.4. For the same compound, in data set [2] (2 μg per animal), the “food intake, 60 min” value turned out to be 4.9 ± 0.4; the “food intake, 120 min” value worked out at 6.6 ± 0.6; the “food intake, 240 min” value was determined as 8.7 ± 0.5. Further, in data set [2] (10 μg per animal), the “food intake, 60 min” value is 5.9 ± 0.2; the “food intake, 120 min” value is 8.1 ± 0.4; the “food intake, 240 min” value is recorded as 9.6 ± 0.7. The “food intake response of capsaicin-treated rats” value in data set [3] was “failed to respond”. In data set [4], the water intake entry was “did not alter”. Also, the “operant responses for food” value in data set [5] is recorded as “reduced”. The “displacement of cannabinoid binding” value in [6] is “did not displace”. Also, the “Stimulatory effect of 10 μM OEA (%) on lypolysis (glycerol release)” value in data set [7] (Adipocyte, 10 μM, 30 min incubation) is 38 ± 16%. For the same compound, the “mobilization of triacylglycerol stores” value in data set [7] (primary white adipose tissue cells) is listed as “significant mobilization”. Also, the “Stimulatory effect of 10 μM OEA (%) on [14C]oleate oxidation to CO2” value in data set [8] (Cardiomyocyte, 10 μM, 30 min incubation) was found to be 37 ± 9%. The “fatty acid oxidation in words” value in data set [8] (primary cultures of heart cells) was “significantly stimulates”. In addition, the motor activity result in [9] is “reduced”.
